The nature of this data set: size of spray dried nanoparticles by scanning electron microscopy (SEM). The format is physicochemical. Particulars: dissolved in ethanol, spray dried with microfluidic nebulator, flow-focusing nebulization unit, four air inlets, 2.8 bar, 1 ml/h, collected 10 cm from outlet.

With `Clc1ccccc1C(c1ccccc1)(c1ccccc1)n1ccnc1` [clotrimazole], the average nanoparticle diameters is given as 24+/−8 nm.

Source of the values: US20140284001A1, “SYSTEMS AND METHODS FOR SPRAY DRYING IN MICROFLUIDIC AND OTHER SYSTEMS” (President and Fellows Of Harvard College, priority 2012, published 2014).
